Reference: ChEMBL document CHEMBL1153587, “Design, synthesis and biological evaluation of novel nitrogen and sulfur containing hetero-1,4-naphthoquinones as potent antifungal and antibacterial agents” (2009)
Converted amounts (≈) assume the structure as drawn.

Experiments:
Type in all cases: functional
Sporothrix schenckii = assay: Antifungal activity against Sporothrix schenckii after 72 hrs by broth microdilution method
Cryptococcus neoformans = assay: Antifungal activity against Cryptococcus neoformans after 72 hrs by broth microdilution method
Candida albicans = assay: Antifungal activity against Candida albicans after 48 hrs by broth microdilution method
Klebsiella pneumoniae = assay: Antibacterial activity against Klebsiella pneumoniae ATCC 27736 after 24 hrs by broth microdilution method; conditions: ATCC 27736, 24 h
Escherichia coli = assay: Antibacterial activity against Escherichia coli after 24 hrs by broth microdilution method
Staphylococcus aureus = assay: Antibacterial activity against Staphylococcus aureus ATCC 25923 after 24 hrs by broth microdilution method; conditions: ATCC 25923, 24 h
Aspergillus fumigatus = assay: Antifungal activity against Aspergillus fumigatus after 72 hrs by broth microdilution method
Candida parapsilosis = assay: Antifungal activity against Candida parapsilosis ATCC 22019 after 48 hrs by broth microdilution method; conditions: Lodderomyces parapsilosis, ATCC 22019, 48 h
[1] = system: Trichophyton mentagrophytes; assay: Antifungal activity against sTrichophyton mentagrophytes after 96 hrs by broth microdilution method

| Compound | MIC (Sporothrix schenckii) | MIC (Cryptococcus neoformans) | MIC (Candida albicans) | MIC (Klebsiella pneumoniae) | MIC (Escherichia coli) | MIC (Staphylococcus aureus) | MIC (Aspergillus fumigatus) | MIC (Candida parapsilosis) | MIC [1] |
| --- | --- | --- | --- | --- | --- | --- | --- | --- | --- |
| NYSTATIN | 13.2 µg/mL | 3.5 µg/mL | 7.8 µg/mL | – | – | – | – | – | – |
| NC[C@H]1O[C@H](O[C@H]2[C@H](O)[C@@H](O[C@H]3O[C@H](CO)[C@@H](O)[C@H](N)[C@H]3O)[C@H](N)C[C@@H]2N)[C@H](N)C[C@@H]1O [TOBRAMYCIN] | – | – | – | 1 µg/mL (≈ 2.14 µM) | 0.5 µg/mL (≈ 1.07 µM) | 0.25 µg/mL (≈ 0.535 µM) | – | – | – |
| COc1cccc(SC2=C(N(c3ccccc3)c3ccccc3)C(=O)c3ccccc3C2=O)c1 | – | – | – | 50 µg/mL (≈ 108 µM) | > 50 µg/mL | 25 µg/mL (≈ 53.9 µM) | – | – | – |
| O=C1C(Nc2ccccc2)=C(Sc2cccc3ccccc23)C(=O)c2ccccc21 | > 50 µg/mL | > 50 µg/mL | 50 µg/mL (≈ 123 µM) | – | – | – | > 50 µg/mL | > 50 µg/mL | > 50 µg/mL |
| O=C1C(Cl)=C(N(c2ccccc2)c2ccccc2)C(=O)c2ccccc21 | 6.25 µg/mL (≈ 17.4 µM) | 25 µg/mL (≈ 69.5 µM) | 12.5 µg/mL (≈ 34.7 µM) | 25 µg/mL (≈ 69.5 µM) | > 50 µg/mL | 25 µg/mL (≈ 69.5 µM) | 50 µg/mL (≈ 139 µM) | 12.5 µg/mL (≈ 34.7 µM) | 50 µg/mL (≈ 139 µM) |
| O=C1C(Cl)=C(Nc2ccccc2)C(=O)c2ccccc21 | > 50 µg/mL | > 50 µg/mL | > 50 µg/mL | > 50 µg/mL | > 50 µg/mL | > 50 µg/mL | > 50 µg/mL | > 50 µg/mL | > 50 µg/mL |
| NC[C@H]1O[C@H](O[C@H]2[C@H](O)[C@@H](O[C@H]3O[C@H](CO)[C@@H](O)[C@H](N)[C@H]3O)[C@H](N)C[C@@H]2N)[C@H](O)[C@@H](O)[C@@H]1O [KANAMYCIN] | – | – | – | 32 µg/mL (≈ 66 µM) | 16 µg/mL (≈ 33 µM) | 2 µg/mL (≈ 4.13 µM) | – | – | – |
| O=C1C(Nc2ccc(O)cc2)=C(Sc2ccccc2)C(=O)c2ccccc21 | – | – | – | > 50 µg/mL | > 50 µg/mL | 50 µg/mL (≈ 134 µM) | – | – | – |
| O=C1C(Cl)=C(NCCN2C(=O)c3ccccc3C2=O)C(=O)c2ccccc21 | – | – | – | 50 µg/mL (≈ 131 µM) | 6.25 µg/mL (≈ 16.4 µM) | 6.25 µg/mL (≈ 16.4 µM) | – | – | – |
| Cn1c(N)c2ccccc2nc2c(=O)c3ccccc3c(=O)c1=2 | 25 µg/mL (≈ 82.4 µM) | 50 µg/mL (≈ 165 µM) | > 50 µg/mL | 50 µg/mL (≈ 165 µM) | 25 µg/mL (≈ 82.4 µM) | > 50 µg/mL | 25 µg/mL (≈ 82.4 µM) | 50 µg/mL (≈ 165 µM) | 25 µg/mL (≈ 82.4 µM) |
| COc1cccc(SC2=C(Cl)C(=O)c3ccccc3C2=O)c1 | – | – | – | > 50 µg/mL | 12.5 µg/mL (≈ 37.8 µM) | 25 µg/mL (≈ 75.6 µM) | – | – | – |
| COc1cccc(SC2=C(N)C(=O)c3ccccc3C2=O)c1 | 25 µg/mL (≈ 80.3 µM) | 12.5 µg/mL (≈ 40.1 µM) | 12.5 µg/mL (≈ 40.1 µM) | 12.5 µg/mL (≈ 40.1 µM) | > 50 µg/mL | 25 µg/mL (≈ 80.3 µM) | 6.25 µg/mL (≈ 20.1 µM) | 25 µg/mL (≈ 80.3 µM) | 12.5 µg/mL (≈ 40.1 µM) |
| N#Cc1ccccc1NC1=C(Br)C(=O)c2ccccc2C1=O | > 50 µg/mL | 12.5 µg/mL (≈ 35.4 µM) | 25 µg/mL (≈ 70.8 µM) | – | – | – | > 50 µg/mL | 12.5 µg/mL (≈ 35.4 µM) | 6.25 µg/mL (≈ 17.7 µM) |
| OC(Cn1cncn1)(Cn1cncn1)c1ccc(F)cc1F [FLUCONAZOLE] | 2 µg/mL (≈ 6.53 µM) | 0.5 µg/mL (≈ 1.63 µM) | 1 µg/mL (≈ 3.27 µM) | – | – | – | 2 µg/mL (≈ 6.53 µM) | 1 µg/mL (≈ 3.27 µM) | 1.56 µg/mL (≈ 5.09 µM) |
| NCC[C@H](O)C(=O)N[C@@H]1C[C@H](N)[C@@H](O[C@H]2O[C@H](CN)[C@@H](O)[C@H](O)[C@H]2O)[C@H](O)[C@H]1O[C@H]1O[C@H](CO)[C@@H](O)[C@H](N)[C@H]1O [AMIKACIN] | – | – | – | 1 µg/mL (≈ 1.71 µM) | 1 µg/mL (≈ 1.71 µM) | 16 µg/mL (≈ 27.3 µM) | – | – | – |
| NC1=C(Sc2ccccc2)C(=O)c2ccccc2C1=O | 25 µg/mL (≈ 88.9 µM) | 25 µg/mL (≈ 88.9 µM) | 12.5 µg/mL (≈ 44.4 µM) | 1.56 µg/mL (≈ 5.54 µM) | > 50 µg/mL | 6.25 µg/mL (≈ 22.2 µM) | 6.25 µg/mL (≈ 22.2 µM) | 12.5 µg/mL (≈ 44.4 µM) | 12.5 µg/mL (≈ 44.4 µM) |
